Non-standard residues stand in square brackets, D forms with d. No end group written: not given here. *: point of attachment. Arg(NO2) = N=C(NCCC[C@H](N)C(=O)O)N[N+](=O)[O-]; 2Nal = N[C@@H](Cc1ccc2ccccc2c1)C(=O)O; Cyclohexanecarbonyl = O=C(C1CCCCC1)*; Arg(Me) = CNC(=N)NCCC[C@H](N)C(=O)O; Lys(Me2) = CN(C)CCCC[C@H](N)C(=O)O; hArg = N=C(N)NCCCC[C@H](N)C(=O)O; hPhe = N[C@@H](CCc1ccccc1)C(=O)O; 2Thi = N[C@@H](Cc1cccs1)C(=O)O; Cha = N[C@@H](CC1CCCCC1)C(=O)O; NMeN = CN[C@@H](CC(N)=O)C(=O)O; aThr = C[C@H](O)[C@H](N)C(=O)O; Tos = Cc1ccc(S(=O)(=O)*)cc1; NMeS = CN[C@@H](CO)C(=O)O; Abu = CC[C@H](N)C(=O)O; Dap = NC[C@H](N)C(=O)O; Bz = O=C(c1ccccc1)*; GABA = NCCCC(=O)O; azaGly = NNC(=O)O; For = O=C*
Biological target: T1, hOT7T175 (Homo sapiens, UniProt Q969F8, L364H)
T1 construct: expressed in transfected cells
Type: cell-based
Settings: hOT7T175/CHO, FLIPR, evaluation for 40 seconds after initiation of the reaction

T1 sequence (Q969F8 whole entry L364H): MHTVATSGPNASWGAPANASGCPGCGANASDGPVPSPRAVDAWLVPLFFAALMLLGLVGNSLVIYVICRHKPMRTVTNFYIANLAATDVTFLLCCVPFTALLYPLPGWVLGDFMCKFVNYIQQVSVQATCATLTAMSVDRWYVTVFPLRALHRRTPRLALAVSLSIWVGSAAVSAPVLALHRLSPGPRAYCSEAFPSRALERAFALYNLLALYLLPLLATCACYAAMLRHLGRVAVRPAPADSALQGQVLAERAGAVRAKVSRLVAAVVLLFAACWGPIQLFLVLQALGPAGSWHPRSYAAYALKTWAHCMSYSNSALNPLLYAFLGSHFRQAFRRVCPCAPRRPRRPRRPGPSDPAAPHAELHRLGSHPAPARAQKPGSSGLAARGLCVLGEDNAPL

Substance	Specific Act. (EC50/MS10 EC50)
Ac-[dY]WNT[dF][azaGly]L[Arg(Me)]W-NH2 [Compound No. 586]	0.3
Ac-[dY][dT]NTF[azaGly]L[Arg(Me)]W-NH2 [Compound No. 628]	4.4
Ac-[dY][dW]D(NHMe)TF[azaGly]L[Arg(Me)]W-NH2 [Compound No. 702]	0.6
Ac-[dY][dW]DTF[azaGly]L[Arg(Me)]W-NH2 [Compound No. 647]	10.6
Ac-[dY][dW]NS(Me)F[azaGly]L[Arg(Me)]W-NH2 [Compound No. 580]	0.6
Ac-[dY][dW]NTA[azaGly]L[Arg(Me)]W-NH2 [Compound No. 631]	2
Ac-[dY][dW]NTE[azaGly]L[Arg(Me)]W-NH2 [Compound No. 634]	10.5
Ac-[dY][dW]NTF[azaGly]A[Arg(Me)]W-NH2 [Compound No. 641]	3.5
Ac-[dY][dW]NTF[azaGly]F[Arg(Me)]W-NH2 [Compound No. 643]	2.5
Ac-[dY][dW]NTF[azaGly]LKW-NH2 [Compound No. 639]	2
Ac-[dY][dW]NTF[azaGly]LR(Et)W-NH2 [Compound No. 609]	0.9
Ac-[dY][dW]NTF[azaGly]LR(Tos)W-NH2 [Compound No. 604]	6.3
Ac-[dY][dW]NTF[azaGly]L[Arg(Me)][hPhe]-NH2 [Compound No. 594]	2.1
Ac-[dY][dW]NTF[azaGly]L[Arg(NO2)]W-NH2 [Compound No. 605]	3.9
Ac-[dY][dW]NTF[azaGly]L[Lys(Me2)]W-NH2 [Compound No. 610]	1.9
Ac-[dY][dW]NTF[azaGly]L[hArg]W-NH2 [Compound No. 645]	1.1
Ac-[dY][dW]NTF[azaGly]S[Arg(Me)]W-NH2 [Compound No. 644]	2.5
Ac-[dY][dW]NTK[azaGly]L[Arg(Me)]W-NH2 [Compound No. 633]	3.4
Ac-[dY][dW]NTL[azaGly]L[Arg(Me)]W-NH2 [Compound No. 632]	1.1
Ac-[dY][dW]NT[2Nal][azaGly]L[Arg(Me)]W-NH2 [Compound No. 694]	1.7
Ac-[dY][dW]NT[2Thi][azaGly]L[Arg(Me)]W-NH2 [Compound No. 695]	0.7

Substance	Specific Act. (EC50/MS10 EC50)
Ac-[dY][dW]NT[Cha][azaGly]L[Arg(Me)]W-NH2 [Compound No. 696]	0.5
Ac-[dY][dW]NT[dF]GL[Arg(Me)]W-NH2 [Compound No. 601]	3.1
Ac-[dY][dW]NT[dF][azaGly]L[Arg(Me)]W-NH2 [Compound No. 597]	0.6
Ac-[dY][dW]N[NMeS]F[azaGly]L[Arg(Me)]W-NH2 [Compound No. 656]	2.9
Ac-[dY][dW]N[aThr]F[azaGly]L[Arg(Me)]W-NH2 [Compound No. 659]	0.6
Ac-[dY][dW]N[dT]F[azaGly]L[Arg(Me)]W-NH2 [Compound No. 654]	2.9
Ac-[dY][dW]QSF[azaGly]L[Arg(Me)]W-NH2 [Compound No. 576]	0.8
Ac-[dY][dW]SSF[azaGly]L[Arg(Me)]W-NH2 [Compound No. 577]	0.7
Ac-[dY][dW]TSF[azaGly]L[Arg(Me)]W-NH2 [Compound No. 578]	0.8
Ac-[dY][dW][Abu]SF[azaGly]L[Arg(Me)]W-NH2 [Compound No. 573]	0.7
Ac-[dY][dW][Dap](Ac)SF[azaGly]L[Arg(Me)]W-NH2 [Compound No. 584]	0.4
Ac-[dY][dW][Dap](For)SF[azaGly]L[Arg(Me)]W-NH2 [Compound No. 585]	0.4
Ac-[dY][dW][Dap]SF[azaGly]L[Arg(Me)]W-NH2 [Compound No. 701]	1.4
Ac-[dY][dW][NMeN]TF[azaGly]L[Arg(Me)]W-NH2 [Compound No. 655]	4.7
Ac-[dY][dW][dN]TF[azaGly]L[Arg(Me)]W-NH2 [Compound No. 653]	1.3
Amidino-D-Trp-Asn-Thr-Phe-AzaGly-Leu-Arg(Me)-Trp-NH2 (Amidino-[dW]NTF[azaGly]L[Arg(Me)]W-NH2) [Compound No. 679]	1.8
Amidino-D-Tyr-D-Trp-Asn-Thr-Phe-AzaGly-Leu-Arg(Me)-Trp-NH2 [Compound No. 614]	0.8
Arg-Arg-D-Tyr-D-Pya(4)-Asn-Ser-Phe-AzaGly-Leu-Arg(Me)-Trp-NH2 [Compound No. 537]	4.7
Arg-D-Tyr-D-Pya(4)-Asn-Ser-Phe-AzaGly-Leu-Arg(Me)-Trp-NH2 [Compound No. 536]	1.8
Benzoyl-D-Trp-Asn-Thr-Phe-AzaGly-Leu-Arg(Me)-Trp-NH2 (Bz-[dW]NTF[azaGly]L[Arg(Me)]W-NH2; SMILES CNC(=N)NCCC[C@H](NC(=O)[C@H](CC(C)C)NC(=O)NNC(=O)[C@H](Cc1ccccc1)NC(=O)[C@@H](NC(=O)[C@H](CC(N)=O)NC(=O)[C@@H](Cc1c[nH]c2ccccc12)NC(=O)c1ccccc1)[C@@H](C)O)C(=O)N[C@@H](Cc1c[nH]c2ccccc12)C(N)=O) [Compound No. 669]	0.5
Bz-NTF[azaGly]L[Arg(Me)]W-NH2 [Compound No. 522]	1.9

Substance	Specific Act. (EC50/MS10 EC50)
Cyclohexanecarbonyl-D-Trp-Asn-Thr-Phe-AzaGly-Leu-Arg(Me)-Trp-NH2 (Cyclohexanecarbonyl-[dW]NTF[azaGly]L[Arg(Me)]W-NH2; SMILES CNC(=N)NCCC[C@H](NC(=O)[C@H](CC(C)C)NC(=O)NNC(=O)[C@H](Cc1ccccc1)NC(=O)[C@@H](NC(=O)[C@H](CC(N)=O)NC(=O)[C@@H](Cc1c[nH]c2ccccc12)NC(=O)C1CCCCC1)[C@@H](C)O)C(=O)N[C@@H](Cc1c[nH]c2ccccc12)C(N)=O) [Compound No. 668]	1.2
Cyclopropanecarbonyl-Asn-Ser-Phe-AzaGly-Leu-Arg(Me)-Trp-NH2 [Compound No. 534]	5.6
D-Arg-Acp-D-Tyr-D-Trp-Abu-Ser-Phe-AzaGly-Leu-Arg(Me)-Trp-NH2 [Compound No. 561]	1.6
D-Arg-Acp-D-Tyr-D-Trp-Asn-Thr-Phe-AzaGly-Leu-Arg(Me)-Trp-NH2 [Compound No. 541]	2.0
D-Arg-D-Arg-Acp-D-Tyr-D-Trp-Asn-Thr-Phe-AzaGly-Leu-Arg(Me)-Trp-NH2 [Compound No. 542]	1.4
D-Trp-Asn-Thr-Phe-AzaGly-Leu-Arg(Me)-Trp-NH2 ([dW]NTF[azaGly]L[Arg(Me)]W-NH2; N-terminus assumed; SMILES CNC(=N)NCCC[C@H](NC(=O)[C@H](CC(C)C)NC(=O)NNC(=O)[C@H](Cc1ccccc1)NC(=O)[C@@H](NC(=O)[C@H](CC(N)=O)NC(=O)[C@H](N)Cc1c[nH]c2ccccc12)[C@@H](C)O)C(=O)N[C@@H](Cc1c[nH]c2ccccc12)C(N)=O) [Compound No. 665]	1.1
D-Trp-D-Pya(4)-Asn-Ser-Phe-AzaGly-Leu-Arg(Me)-Trp-NH2 [Compound No. 572]	0.7
D-Tyr-D-Pya(4)-Asn-Hyp-Phe-AzaGly-Leu-Arg(Me)-Trp-NH2 [Compound No. 527]	3.3
D-Tyr-D-Pya(4)-Asn-Phg-Phe-AzaGly-Leu-Arg(Me)-Trp-NH2 [Compound No. 530]	3.4
D-Tyr-D-Pya(4)-Asn-Pro-Phe-AzaGly-Leu-Arg(Me)-Trp-NH2 [Compound No. 528]	1.4
D-Tyr-D-Pya(4)-Asn-Ser-Phe-AzaGly-Leu-Arg-Phe-NH2 [Compound No. 521]	2.4
D-Tyr-D-Pya(4)-Asn-Tle-Phe-AzaGly-Leu-Arg(Me)-Trp-NH2 [Compound No. 529]	1.8
Glycoloyl-D-Trp-Asn-Thr-Phe-AzaGly-Leu-Arg(Me)-Trp-NH2 (Glycoloyl-[dW]NTF[azaGly]L[Arg(Me)]W-NH2) [Compound No. 680]	2.5
Glycoloyl-D-Tyr-D-Trp-Asn-Thr-Phe-AzaGly-Leu-Arg(Me)-Trp-NH2 (Glycoloyl-[dY][dW]NTF[azaGly]L[Arg(Me)]W-NH2) [Compound No. 681]	1.2
Me-D-Tyr-D-Trp-Asn-Thr-Phe-AzaGly-Leu-Arg(Me)-Trp-NH2 [Compound No. 570]	0.5
Phenylacetyl-Asn-Ser-Phe-AzaGly-Leu-Arg(Me)-Trp-NH2 [Compound No. 519]	2.4
[dR][dR][GABA][dY][dW]NTF[azaGly]L[Arg(Me)]W-NH2 [Compound No. 556]	2.8
[dR][dR][dR][GABA][dY][dW]NTF[azaGly]L[Arg(Me)]W-NH2 [Compound No. 557]	3.2
[dY][dW]NVF[azaGly]L[Arg(Me)]W-NH2 [Compound No. 539]	1.2

Reference: US8778871B2 (Takeda Pharmaceutical Company Limited, priority 2004, dated 2014)
